Laboratory results published in ChEMBL document CHEMBL1144517, “Structural requirement of chalcones for the inhibitory activity of interleukin-5” (Bioorg Med Chem, 2007).

Key:
[1] = Inhibition of IL5 in mouse Y16 cells; assay type: functional; parameters: concentration or dose not given beside the values
[2] = Inhibition of IL5 in mouse Y16 cells […]; assay type: functional, cell-based

SMILES	Inhibition [1]	IC50 [2]
O=C(/C=C/c1ccc(O)cc1)c1ccccc1O	50%	48.2 µM
CCc1ccc(/C=C/C(=O)c2c(O)cccc2OCC2CCCCC2)cc1	82.3%	27.9 µM
O=C(/C=C/c1ccc(CO)cc1)c1c(O)cccc1OCC1CCCCC1	99.3%	6.4 µM
O=Cc1ccc(/C=C/C(=O)c2c(O)cccc2OCC2CCCCC2)cc1	99.8%	4.5 µM
O=C(O)c1cccc(/C=C/C(=O)c2c(O)cccc2OCC2CCCCC2)c1	98.1%	14.1 µM
O=C(O)c1ccccc1/C=C/C(=O)c1c(O)cccc1OCC1CCCCC1	-18.9%	> 50 µM
COCOc1ccc(/C=C/C(=O)c2c(O)cccc2OCc2ccccc2)cc1	47.8%	> 50 µM
O=C(/C=C/c1ccc(O)cc1)c1ccc(OCC2CCCCC2)cc1O	59.7%	21.4 µM
O=C(O)c1ccc(/C=C/C(=O)c2c(O)cccc2OCC2CCCCC2)cc1	100%	9.4 µM
Nc1ccc(/C=C/C(=O)c2c(O)cccc2OCC2CCCCC2)cc1	16.4%	> 50 µM
O=C(O)c1ccc(/C=C/C(=O)c2ccccc2O)cc1	-18.7%	> 50 µM
O=C(/C=C/c1ccccc1)c1c(O)cccc1OCC1CCCCC1	99.6%	14.3 µM
COC(=O)c1ccc(/C=C/C(=O)c2c(O)cccc2OCC2CCCCC2)cc1	98.6%	3.9 µM
NS(=O)(=O)c1ccc(/C=C/C(=O)c2c(O)cccc2OCc2ccccc2)cc1	99.5%	7 µM
O=C(/C=C/c1ccc(O)cc1)c1c(O)cccc1OCC1CCCCC1	99%	12.6 µM
O=C(O)c1ccc(CCC(=O)c2c(O)cccc2OCC2CCCCC2)cc1	15.6%	> 50 µM
O=C(/C=C/c1ccc(O)cc1)c1c(O)cccc1OCc1ccccc1	78.8%	25.3 µM
O=C(O)c1ccc(/C=C/C(=O)c2ccc(OCC3CCCCC3)cc2O)cc1	100%	10.8 µM
NS(=O)(=O)c1ccc(/C=C/C(=O)c2c(O)cccc2OCC2CCCCC2)cc1	99.5%	1.8 µM
CC(=O)Nc1ccc(/C=C/C(=O)c2c(O)cccc2OCC2CCCCC2)cc1	99.2%	6.4 µM
O=C(/C=C/c1ccc(Cl)cc1)c1c(O)cccc1OCC1CCCCC1	98.8%	7.1 µM
O=C(/C=C/c1ccc(O)cc1)c1ccc(OCc2ccccc2)cc1O	77.6%	28.8 µM
O=C(O)c1ccc(/C=C/C(=O)c2ccc(OCc3ccccc3)cc2O)cc1	100%	14.2 µM
O=C(O)c1ccc(/C=C/C(=O)c2c(O)cccc2OCc2ccccc2)cc1	100%	10.2 µM
O=C(O)c1ccc(/C=C/C(=O)c2ccccc2OCc2ccccc2)cc1	15%	> 50 µM
COCOc1ccc(/C=C/C(=O)c2c(O)cccc2OCC2CCCCC2)cc1	13%	> 50 µM
